Experimental findings from article doi:10.1101/2021.06.18.448987v1 (biorxiv, 2021) are described below.

Data set [1] has as its target T1, AnaGlgC (Nostoc sp. PCC 7120 = FACHB-418, UniProt P30521).
T1 sequence (P30521 1-429): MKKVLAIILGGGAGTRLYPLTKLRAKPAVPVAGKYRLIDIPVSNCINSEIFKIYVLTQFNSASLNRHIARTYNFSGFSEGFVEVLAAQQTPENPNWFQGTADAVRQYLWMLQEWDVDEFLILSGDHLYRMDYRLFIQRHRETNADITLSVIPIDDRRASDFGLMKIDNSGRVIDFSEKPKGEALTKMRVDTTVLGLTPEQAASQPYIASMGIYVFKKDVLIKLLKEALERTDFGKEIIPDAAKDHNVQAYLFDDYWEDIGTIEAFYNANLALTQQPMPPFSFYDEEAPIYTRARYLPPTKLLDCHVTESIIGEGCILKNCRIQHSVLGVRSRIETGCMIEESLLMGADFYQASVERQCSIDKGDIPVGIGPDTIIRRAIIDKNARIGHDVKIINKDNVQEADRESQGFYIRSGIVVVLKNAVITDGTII
Put plainly: Malachite Green Pi release with inorganic pyrophosphatase, ADP-Glc synthesis. It is filed as biochemical.

Data set [2] addresses flMelGlgC. The data set is described as above. It is filed as biochemical, Candidatus Melainabacteria bacterium GWF2_37_15. The conditions noted are these: read-out: A0.5; allosteric activator; 10 mM MgCl2; MOPS pH 8.0; 37 °C.
Data set [3] addresses inMelGlgC. The description is as above. The class given is biochemical, Candidatus Melainabacteria bacterium MEL.A1. The conditions noted are these: read-out: A0.5; allosteric activator; 10 mM MgCl2; MOPS pH 8.0; 37 °C.
Data set [4] concerns inMelGlgC. Conditions: read-out: S0.5, no effector, 10 mM MgCl2, MOPS pH 8.0, 37 °C.
Data set [5] relates to flMelGlgC. The conditions noted are these: read-out: S0.5, no effector, 10 mM MgCl2, MOPS pH 8.0, 37 °C.
Data set [6] deals with T1, AnaGlgC. The experiment in a line: biochemical.
The subject of data set [7] is flMelGlgC. Put plainly: activity assay, ADP-Glc synthesis. Conditions: read-out: I0.5; inhibitor; 10 mM MgCl2; MOPS pH 8.0; 37 °C. The class given is biochemical, Candidatus Melainabacteria bacterium GWF2_37_15.
Data set [8] concerns inMelGlgC. Put plainly: activity assay, ADP-Glc synthesis. It is filed as biochemical, Candidatus Melainabacteria bacterium MEL.A1. Conditions: read-out: I0.5; inhibitor; 10 mM MgCl2; MOPS pH 8.0; 37 °C.
The target of data set [9] is T1, AnaGlgC. Put plainly: coupled spectrophotometric assay. It is filed as biochemical.
Substrate in data set [10]: O=P(O)(O)O[C@H]1O[C@H](CO)[C@@H](O)[C@H](O)[C@H]1O
The experiment in a line: purified protein. Conditions: no effector, saturating ATP, 10 mM MgCl2, MOPS pH 8.0, 37 °C.

Substrate in data set [11]: Nc1ncnc2c1ncn2[C@@H]1O[C@H](COP(=O)(O)OP(=O)(O)OP(=O)(O)O)[C@@H](O)[C@H]1O
Put plainly: purified protein. Conditions: no effector, saturating Glc-1P, 10 mM MgCl2, MOPS pH 8.0, 37 °C.

Where [12] appears, read: read-out: A0.5, allosteric activator, 10 mM MgCl2, MOPS pH 8.0, 37 °C.

Like-named read-outs stand apart in the source and are kept apart here.

`O=P(O)(O)OC[C@H]1OC(O)[C@H](O)[C@@H](O)[C@@H]1O` (stereo partly shown) [Glc-6P]: the EC50 at AnaGlgC [1] (setting [12]) is 1450 ± 160 µM; on flMelGlgC [2] it was roughly 300 µM; at inMelGlgC [3] it was roughly 300 µM.

On to `O=P(O)(O)O[C@H]1O[C@H](CO)[C@@H](O)[C@H](O)[C@H]1O` [Glc-1P], for which the Km was 320 ± 30 µM in the data set with inMelGlgC [4] (saturating ATP) and 2100 ± 200 µM in the data set on flMelGlgC [5] (saturating ATP).

With `Nc1ncnc2c1ncn2[C@@H]1O[C@H](COP(=O)(O)OP(=O)(O)OP(=O)(O)O)[C@@H](O)[C@H]1O` [ATP], the Km in the data set on inMelGlgC [4] (saturating Glc-1P) was found to be 250 ± 10 µM; in the data set with flMelGlgC [5] (saturating Glc-1P) it was 340 ± 50 µM.

With `O=P(O)(O)OC[C@H]1OC(O)(CO)[C@@H](O)[C@@H]1O` (stereo partly shown) [Fru-6P], the EC50 at AnaGlgC [1] (setting [12]) stood at 900 ± 100 µM; on flMelGlgC [2] it was 1700 ± 100 µM; at inMelGlgC [3], 440 ± 50 µM.

Consider `O=P(O)(O)OC[C@H]1OC(O)[C@@H](O)[C@@H](O)[C@@H]1O` (stereo partly shown) [Man-6P], for which the EC50 on flMelGlgC [2] was found to be 450 ± 40 µM; at inMelGlgC [3] it was 520 ± 20 µM.

Regarding `O=C(O)[C@H](O)COP(=O)(O)O` [3-PGA], the results for the EC50 at AnaGlgC [1] and at AnaGlgC [6] were 200 µM and 190 ± 90 µM, respectively.

Take `Nc1ncnc2c1ncn2[C@@H]1O[C@H](COP(=O)(O)OP(=O)(O)O)[C@@H](O)[C@H]1O` [ADP]: the results for the IC50 with flMelGlgC [7] and in the data set on inMelGlgC [8] were 1440 ± 80 µM and 2300 ± 900 µM, respectively.

For the molecule `O=P(O)(O)O` [Pi], the IC50 against AnaGlgC [9] was determined as 90 µM.

B1: AnaGlgC (Nostoc sp. PCC 7120 = FACHB-418) (protein)
chain: T1 sequence (P30521 1-429)
On to B1, for which the K0.5 is given as 0.08 ± 0.02 mM in the data set “purified protein [10]” and 0.40 ± 0.04 mM in “purified protein [11]”.
